Source: US20240398784A1, “C-LINKED ISOQUINOLINE AMIDES AS LRRK2 INHIBITORS, PHARMACEUTICAL COMPOSITIONS, AND USES THEREOF” (Merck Sharp & Dohme LLC, priority 2021, published 2024)

Biological target: LRRK2 G2019S (Homo sapiens, UniProt Q5S007, G2019S)
Test: LRRK2 G2019S Km ATP LanthaScreen assay
Assay type: biochemical
Conditions: read-out: LRRK2 pIC50 (converted)

LRRK2 G2019S, sequence (Q5S007 whole entry G2019S): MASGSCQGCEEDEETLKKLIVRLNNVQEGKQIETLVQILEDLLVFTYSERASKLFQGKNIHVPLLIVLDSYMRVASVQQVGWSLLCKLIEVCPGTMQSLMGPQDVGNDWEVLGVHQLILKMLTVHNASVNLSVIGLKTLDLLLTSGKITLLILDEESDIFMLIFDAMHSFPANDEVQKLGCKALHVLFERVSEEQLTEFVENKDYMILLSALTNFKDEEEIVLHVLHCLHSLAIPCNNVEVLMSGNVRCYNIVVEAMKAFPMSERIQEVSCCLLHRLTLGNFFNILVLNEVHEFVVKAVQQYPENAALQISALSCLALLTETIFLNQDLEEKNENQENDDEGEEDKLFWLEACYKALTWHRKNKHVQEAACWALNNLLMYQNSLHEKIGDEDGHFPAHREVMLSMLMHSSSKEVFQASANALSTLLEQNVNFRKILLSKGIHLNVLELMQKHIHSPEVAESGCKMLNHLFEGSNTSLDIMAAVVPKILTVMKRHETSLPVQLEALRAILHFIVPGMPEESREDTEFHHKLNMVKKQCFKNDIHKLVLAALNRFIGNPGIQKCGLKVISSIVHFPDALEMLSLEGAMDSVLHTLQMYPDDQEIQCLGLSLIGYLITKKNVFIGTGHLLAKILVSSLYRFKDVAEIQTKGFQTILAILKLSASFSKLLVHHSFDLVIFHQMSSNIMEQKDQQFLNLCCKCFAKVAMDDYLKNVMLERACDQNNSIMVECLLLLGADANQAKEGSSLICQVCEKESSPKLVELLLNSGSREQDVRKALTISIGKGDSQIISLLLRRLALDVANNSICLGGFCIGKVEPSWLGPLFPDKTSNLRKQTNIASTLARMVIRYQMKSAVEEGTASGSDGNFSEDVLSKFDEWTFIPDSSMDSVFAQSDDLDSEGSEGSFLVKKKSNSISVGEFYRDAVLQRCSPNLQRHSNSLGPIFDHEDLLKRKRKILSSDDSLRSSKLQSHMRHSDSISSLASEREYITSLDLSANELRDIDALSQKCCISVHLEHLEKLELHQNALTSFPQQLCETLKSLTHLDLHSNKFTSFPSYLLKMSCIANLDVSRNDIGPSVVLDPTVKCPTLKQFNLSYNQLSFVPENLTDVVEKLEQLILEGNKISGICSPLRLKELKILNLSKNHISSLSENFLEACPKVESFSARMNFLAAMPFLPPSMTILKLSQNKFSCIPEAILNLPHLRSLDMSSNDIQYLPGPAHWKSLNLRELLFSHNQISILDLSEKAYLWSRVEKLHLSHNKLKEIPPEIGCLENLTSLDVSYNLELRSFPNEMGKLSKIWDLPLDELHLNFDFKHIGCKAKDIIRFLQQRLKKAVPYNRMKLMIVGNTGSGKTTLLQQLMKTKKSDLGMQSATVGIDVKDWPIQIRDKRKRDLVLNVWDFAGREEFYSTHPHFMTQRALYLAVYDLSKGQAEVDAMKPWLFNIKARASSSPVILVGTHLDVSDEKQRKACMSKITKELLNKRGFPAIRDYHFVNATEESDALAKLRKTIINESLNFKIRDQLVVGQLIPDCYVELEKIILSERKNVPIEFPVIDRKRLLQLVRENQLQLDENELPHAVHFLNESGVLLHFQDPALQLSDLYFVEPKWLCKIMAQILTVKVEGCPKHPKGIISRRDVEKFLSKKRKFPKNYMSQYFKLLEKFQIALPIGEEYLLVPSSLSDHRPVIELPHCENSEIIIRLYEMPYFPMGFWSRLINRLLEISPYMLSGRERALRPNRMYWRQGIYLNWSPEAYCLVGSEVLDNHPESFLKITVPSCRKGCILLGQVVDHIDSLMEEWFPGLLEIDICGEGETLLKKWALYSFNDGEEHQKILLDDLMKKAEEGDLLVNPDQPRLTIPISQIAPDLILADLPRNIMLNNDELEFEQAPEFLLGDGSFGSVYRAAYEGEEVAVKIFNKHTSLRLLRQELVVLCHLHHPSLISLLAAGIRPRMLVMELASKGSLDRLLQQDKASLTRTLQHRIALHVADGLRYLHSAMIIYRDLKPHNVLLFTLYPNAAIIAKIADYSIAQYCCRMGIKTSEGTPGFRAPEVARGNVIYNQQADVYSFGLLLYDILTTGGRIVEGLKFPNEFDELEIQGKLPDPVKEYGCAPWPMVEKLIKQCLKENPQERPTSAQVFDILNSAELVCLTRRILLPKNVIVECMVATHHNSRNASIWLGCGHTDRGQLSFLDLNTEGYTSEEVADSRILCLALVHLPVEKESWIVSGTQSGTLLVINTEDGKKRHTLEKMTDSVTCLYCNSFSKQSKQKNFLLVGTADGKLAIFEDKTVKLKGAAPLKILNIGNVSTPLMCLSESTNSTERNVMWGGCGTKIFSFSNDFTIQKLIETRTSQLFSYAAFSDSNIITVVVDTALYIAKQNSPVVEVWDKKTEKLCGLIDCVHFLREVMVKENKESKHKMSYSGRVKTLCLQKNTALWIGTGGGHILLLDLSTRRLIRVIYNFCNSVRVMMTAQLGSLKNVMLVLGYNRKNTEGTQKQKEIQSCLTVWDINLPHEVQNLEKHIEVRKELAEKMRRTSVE

| Structure (SMILES) | IC50 |
| --- | --- |
| CC1C(C(=O)Nc2cc3cc(C4CCN(C5(C)COCC5O)CC4)c(Cl)cc3cn2)C1c1ccccn1 (single isomer, unassigned) [Ex-4.51, N-(7-chloro-6-(1-(4-hydroxy-3-methyltetrahydrofuran-3-yl)piperidin-4-yl)isoquinolin-3-yl)-2-methyl-3-(pyridin-2-yl)cyclopropane-1-carboxamide] | 0.0832 µM |
| CC1C(C(=O)Nc2cc3cc(C4CCN(C5(C)COCC5O)CC4)c(Cl)cc3cn2)C1c1ccccn1 (single isomer, unassigned) [Ex-4.52, N-(7-chloro-6-(1-(4-hydroxy-3-methyltetrahydrofuran-3-yl)piperidin-4-yl)isoquinolin-3-yl)-2-methyl-3-(pyridin-2-yl)cyclopropane-1-carboxamide] | 0.0151 µM |
| CC1C(C(=O)Nc2cc3cc(C4CCN(C5(C)COCC5O)CC4)c(Cl)cc3cn2)C1c1ccccn1 (single isomer, unassigned) [Ex-4.53, N-(7-chloro-6-(1-(4-hydroxy-3-methyltetrahydrofuran-3-yl)piperidin-4-yl)isoquinolin-3-yl)-2-methyl-3-(pyridin-2-yl)cyclopropane-1-carboxamide] | 0.00398 µM |
| CC1C(C(=O)Nc2cc3cc(C4CCN(C5(C)COCC5O)CC4)c(Cl)cc3cn2)C1c1ccccn1 (single isomer, unassigned) [Ex-4.54, N-(7-chloro-6-(1-(4-hydroxy-3-methyltetrahydrofuran-3-yl)piperidin-4-yl)isoquinolin-3-yl)-2-methyl-3-(pyridin-2-yl)cyclopropane-1-carboxamide] | 0.00912 µM |
| CCC1C(C(=O)Nc2cc3cc(C4CCN(C5(C)COCC5O)CC4)c(Cl)cc3cn2)C1c1ccccn1 (single isomer, unassigned) [Ex-4.55, N-(7-chloro-6-(1-(4-hydroxy-3-methyltetrahydrofuran-3-yl)piperidin-4-yl)isoquinolin-3-yl)-2-ethyl-3-(pyridin-2-yl)cyclopropane-1-carboxamide] | 0.0309 µM |
| CCC1C(C(=O)Nc2cc3cc(C4CCN(C5(C)COCC5O)CC4)c(Cl)cc3cn2)C1c1ccccn1 (single isomer, unassigned) [Ex-4.56, N-(7-chloro-6-(1-(4-hydroxy-3-methyltetrahydrofuran-3-yl)piperidin-4-yl)isoquinolin-3-yl)-2-ethyl-3-(pyridin-2-yl)cyclopropane-1-carboxamide] | 0.0182 µM |
| Cc1ccc(C2CC2C(=O)Nc2cc3cc(C4CCN(C5(C)COCC5O)CC4)c(Cl)cc3cn2)s1 (single isomer, unassigned) [Ex-4.57, N-(7-chloro-6-(1-(4-hydroxy-3-methyltetrahydrofuran-3-yl)piperidin-4-yl)isoquinolin-3-yl)-2-(5-methylthiophen-2-yl)cyclopropane-1-carboxamide] | 0.0417 µM |
| Cc1ccc(C2CC2C(=O)Nc2cc3cc(C4CCN(C5(C)COCC5O)CC4)c(Cl)cc3cn2)s1 (single isomer, unassigned) [Ex-4.58, N-(7-chloro-6-(1-(4-hydroxy-3-methyltetrahydrofuran-3-yl)piperidin-4-yl)isoquinolin-3-yl)-2-(5-methylthiophen-2-yl)cyclopropane-1-carboxamide] | 0.00151 µM |
| CC1(N2CCC(c3cc4cc(NC(=O)C5CC5c5cccs5)ncc4cc3Cl)CC2)COCC1O (single isomer, unassigned) [Ex-4.59, N-(7-chloro-6-(1-(4-hydroxy-3-methyltetrahydrofuran-3-yl)piperidin-4-yl)isoquinolin-3-yl)-2-(thiophen-2-yl)cyclopropane-1-carboxamide] | 0.129 µM |
| CC1(N2CCC(c3cc4cc(NC(=O)C5CC5c5cccs5)ncc4cc3Cl)CC2)COCC1O (single isomer, unassigned) [Ex-4.60, N-(7-chloro-6-(1-(4-hydroxy-3-methyltetrahydrofuran-3-yl)piperidin-4-yl)isoquinolin-3-yl)-2-(thiophen-2-yl)cyclopropane-1-carboxamide] | 8.13e-05 µM |
| CC(C)Cn1nccc1C1CC1C(=O)Nc1cc2cc(C3CCN(C4(C)COCC4O)CC3)c(Cl)cc2cn1 (single isomer, unassigned) [Ex-4.61, N-(7-chloro-6-(1-(4-hydroxy-3-methyltetrahydrofuran-3-yl)piperidin-4-yl)isoquinolin-3-yl)-2-(1-isobutyl-1H-pyrazol-5-yl)cyclopropane-1-carboxamide] | 0.0724 µM |
| CC(C)Cn1nccc1C1CC1C(=O)Nc1cc2cc(C3CCN(C4(C)COCC4O)CC3)c(Cl)cc2cn1 (single isomer, unassigned) [Ex-4.62, N-(7-chloro-6-(1-(4-hydroxy-3-methyltetrahydrofuran-3-yl)piperidin-4-yl)isoquinolin-3-yl)-2-(1-isobutyl-1H-pyrazol-5-yl)cyclopropane-1-carboxamide] | 81300 µM |
| CC(C)n1nccc1C1CC1C(=O)Nc1cc2cc(C3CCN(C4(C)COCC4O)CC3)c(Cl)cc2cn1 (single isomer, unassigned) [Ex-4.63, N-(7-chloro-6-(1-(4-hydroxy-3-methyltetrahydrofuran-3-yl)piperidin-4-yl)isoquinolin-3-yl)-2-(1-isopropyl-1H-pyrazol-5-yl)cyclopropane-1-carboxamide] | 0.0224 µM |
| CC(C)n1nccc1C1CC1C(=O)Nc1cc2cc(C3CCN(C4(C)COCC4O)CC3)c(Cl)cc2cn1 (single isomer, unassigned) [Ex-4.64, N-(7-chloro-6-(1-(4-hydroxy-3-methyltetrahydrofuran-3-yl)piperidin-4-yl)isoquinolin-3-yl)-2-(1-isopropyl-1H-pyrazol-5-yl)cyclopropane-1-carboxamide] | 0.00245 µM |
| CC1(N2CCC(c3cc4cc(NC(=O)C5CC5c5ccco5)ncc4cc3Cl)CC2)COCC1O (single isomer, unassigned) [Ex-4.65, N-(7-chloro-6-(1-(4-hydroxy-3-methyltetrahydrofuran-3-yl)piperidin-4-yl)isoquinolin-3-yl)-2-(furan-2-yl)cyclopropane-1-carboxamide] | 0.000708 µM |
| CC1(N2CCC(c3cc4cc(NC(=O)C5CC5c5ccco5)ncc4cc3Cl)CC2)COCC1O (single isomer, unassigned) [Ex-4.66, N-(7-chloro-6-(1-(4-hydroxy-3-methyltetrahydrofuran-3-yl)piperidin-4-yl)isoquinolin-3-yl)-2-(furan-2-yl)cyclopropane-1-carboxamide] | 8.13e-05 µM |
| CC1(N2CCC(c3cc4cc(NC(=O)C5CC5C5CCOCC5)ncc4cc3Cl)CC2)COCC1O (single isomer, unassigned) [Ex-4.67, N-(7-chloro-6-(1-(4-hydroxy-3-methyltetrahydrofuran-3-yl)piperidin-4-yl)isoquinolin-3-yl)-2-(tetrahydro-2H-pyran-4-yl)cyclopropane-1-carboxamide] | 8.13e-05 µM |
| CC1(N2CCC(c3cc4cc(NC(=O)C5CC5C5CCCO5)ncc4cc3Cl)CC2)COCC1O (single isomer, unassigned) [Ex-4.69, N-(7-chloro-6-(1-(4-hydroxy-3-methyltetrahydrofuran-3-yl)piperidin-4-yl)isoquinolin-3-yl)-2-(tetrahydrofuran-2-yl)cyclopropane-1-carboxamide] | 8.13e-05 µM |
| CC1(N2CCC(c3cc4cc(NC(=O)C5CC5C5CCCCO5)ncc4cc3Cl)CC2)COCC1O (single isomer, unassigned) [Ex-4.71, N-(7-chloro-6-(1-(4-hydroxy-3-methyltetrahydrofuran-3-yl)piperidin-4-yl)isoquinolin-3-yl)-2-(tetrahydro-2H-pyran-2-yl)cyclopropane-1-carboxamide] | 8.13e-05 µM |
| CC1(N2CCC(c3cc4cc(NC(=O)C5CCC5c5ccccn5)ncc4cc3Cl)CC2)COCC1O (single isomer, unassigned) [Ex-4.73, N-(7-chloro-6-(1-(4-hydroxy-3-methyltetrahydrofuran-3-yl)piperidin-4-yl)isoquinolin-3-yl)-2-(pyridin-2-yl)cyclobutane-1-carboxamide] | 0.661 µM |
| CC1(N2CCC(c3cc4cc(NC(=O)C5CCC5c5ccccn5)ncc4cc3Cl)CC2)COCC1O (single isomer, unassigned) [Ex-4.74, N-(7-chloro-6-(1-(4-hydroxy-3-methyltetrahydrofuran-3-yl)piperidin-4-yl)isoquinolin-3-yl)-2-(pyridin-2-yl)cyclobutane-1-carboxamide] | 1.78 µM |
| CC1(N2CCC(c3cc4cc(NC(=O)C5CC(c6ccccn6)C5)ncc4cc3Cl)CC2)COCC1O (single isomer, unassigned) [Ex-4.75, N-(7-chloro-6-(1-(4-hydroxy-3-methyltetrahydrofuran-3-yl)piperidin-4-yl)isoquinolin-3-yl)-3-(pyridin-2-yl)cyclobutane-1-carboxamide] | 0.1 µM |
| CC1(N2CCC(c3cc4cc(NC(=O)C5CC(c6ccccn6)C5)ncc4cc3Cl)CC2)COCC1O (single isomer, unassigned) [Ex-4.76, N-(7-chloro-6-(1-(4-hydroxy-3-methyltetrahydrofuran-3-yl)piperidin-4-yl)isoquinolin-3-yl)-3-(pyridin-2-yl)cyclobutane-1-carboxamide] | 0.0417 µM |
| Cc1cc2cnc(NC(=O)C3CC3c3ccccn3)cc2cc1C1CCN(C2(C)COCC2O)CC1 (single isomer, unassigned) [Ex-4.77, N-(6-(1-(4-hydroxy-3-methyltetrahydrofuran-3-yl)piperidin-4-yl)-7-methylisoquinolin-3-yl)-2-(pyridin-2-yl)cyclopropane-1-carboxamide] | 0.00562 µM |
| Cc1cc2cnc(NC(=O)C3CC3c3ccccn3)cc2cc1C1CCN(C2(C)COCC2O)CC1 (single isomer, unassigned) [Ex-4.78, N-(6-(1-(4-hydroxy-3-methyltetrahydrofuran-3-yl)piperidin-4-yl)-7-methylisoquinolin-3-yl)-2-(pyridin-2-yl)cyclopropane-1-carboxamide] | 8.13e-05 µM |
| O=C(Nc1cc2cc(C3CCC(N4CC(F)C4)CC3)c(Cl)cc2cn1)C1CC1c1ccccn1 (single isomer, unassigned) [Ex-5.1, (1R,2R or 1S,2S)-N-(7-chloro-6-((cis or trans)-4-(3-fluoroazetidin-1-yl)cyclohexyl)isoquinolin-3-yl)-2-(pyridin-2-yl)cyclopropane-1-carboxamide] | 0.0525 µM |
